Experimental data published in patent US20110177105A1, “Novel Selective Inhibitors of Ubiquitin Specific Protease 7, the Pharmaceutical Compositions Thereof and Their Therapeutic Applications” (priority 2010, published 2011).
pIC50: −log10 of the molar value.

Assays:
USP5 = molecular target: T1, USP5 (Homo sapiens, UniProt P45974); assay: USP5 activity assay (Ub-AMC); type: biochemical; conditions: 300 nM Ub-AMC, 300 pM enzyme
T1 sequence (P45974 1-858): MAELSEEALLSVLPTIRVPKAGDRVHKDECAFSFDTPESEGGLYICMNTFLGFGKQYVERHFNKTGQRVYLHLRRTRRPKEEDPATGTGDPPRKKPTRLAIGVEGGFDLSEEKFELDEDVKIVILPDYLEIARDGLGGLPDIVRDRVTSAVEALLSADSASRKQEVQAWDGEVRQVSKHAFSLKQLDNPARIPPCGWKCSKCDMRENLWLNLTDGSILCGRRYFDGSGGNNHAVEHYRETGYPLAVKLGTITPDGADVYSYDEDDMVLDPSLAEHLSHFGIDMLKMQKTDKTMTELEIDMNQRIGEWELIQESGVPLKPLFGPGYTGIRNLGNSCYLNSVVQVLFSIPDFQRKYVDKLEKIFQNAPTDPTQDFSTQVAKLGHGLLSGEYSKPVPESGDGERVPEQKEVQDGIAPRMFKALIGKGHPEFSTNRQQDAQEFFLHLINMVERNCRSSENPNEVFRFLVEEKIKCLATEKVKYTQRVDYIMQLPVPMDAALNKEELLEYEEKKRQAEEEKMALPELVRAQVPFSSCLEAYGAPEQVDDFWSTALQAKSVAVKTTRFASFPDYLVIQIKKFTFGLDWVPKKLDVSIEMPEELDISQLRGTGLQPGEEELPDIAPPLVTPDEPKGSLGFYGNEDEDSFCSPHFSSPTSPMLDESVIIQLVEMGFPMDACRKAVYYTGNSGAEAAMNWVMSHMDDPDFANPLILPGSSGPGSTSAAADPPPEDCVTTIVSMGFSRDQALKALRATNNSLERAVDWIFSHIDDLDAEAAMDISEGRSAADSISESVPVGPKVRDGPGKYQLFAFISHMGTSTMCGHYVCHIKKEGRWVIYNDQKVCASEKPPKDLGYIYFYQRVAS
Procedure: USP5 was diluted in USP buffer (50 mM Tris HCl; 0.5 mM EDTA; 5 mM DTT; 0.01% Triton X-100; Bovine Serum Albumin 0.05 mg·ml^−1 pH 7.6). Compounds stocks (100 mM) were stored at −20° C. in DMSO. Compounds were tested at different concentrations: from 200 μM to 91 nM.
Reactions were performed as duplicates in Black 384 well plates (small volume microplates; Greiner; 10 μl final reaction volume). The substrate concentration for USP5 was 300 nM Ub-AMC (Boston Biochem). The concentrations of the enzyme (USP5) in specificity assays was 300 pM. The concentrations were determined in order to perform specificity assays under initial velocities at fixed substrate concentration. Compounds were pre-incubated with enzymes for 30 minutes at 25° C. Reactions were initiated by addition of substrate to the plates containing the enzymes (+/−compounds) diluted in assay buffer. Reactions were incubated for 60 minutes at 37° C. Reactions were stopped by adding acetic acid (100 mM final). Readings were performed on a Pherastar Fluorescent Reader (BMG). λ Emission 380 nm; λ Excitation=460 nm. Data (mean values+/−standard deviation) were analyzed as % of control (no compound) and plotted as percentage versus the Log of the compound concentration using GraphPad (Prism). Data were fitted to a sigmoidal model (variable slope).

Caspase 3 = molecular target: T2, Caspase 3 (Homo sapiens, UniProt P42574); assay: Caspase 3 activity assay (Ac-DEVD-AMC); type: biochemical; conditions: 250 nM Ac-DEVD-AMC, 1.6 nM enzyme
T2 sequence (P42574 29-175 limits assumed): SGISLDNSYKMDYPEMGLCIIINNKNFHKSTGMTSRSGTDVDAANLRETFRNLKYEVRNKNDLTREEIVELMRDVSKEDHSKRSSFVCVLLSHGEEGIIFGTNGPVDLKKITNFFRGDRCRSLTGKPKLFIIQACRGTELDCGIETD
T2 sequence (P42574 176-277 limits assumed): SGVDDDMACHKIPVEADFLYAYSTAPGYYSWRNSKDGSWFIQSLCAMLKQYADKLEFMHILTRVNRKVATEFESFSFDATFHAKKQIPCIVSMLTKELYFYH
Procedure: Caspase 3 was diluted in Caspase 3 buffer (100 mM Hepes pH 7.5; 10% sucrose; 0.1% CHAPS). Compounds stocks (100 mM) were stored at −20° C. in DMSO. Compounds were tested at different concentrations: from 200 μM to 91 nM.
Reactions were performed as duplicates in Black 384 well plates (small volume microplates; Greiner; 10 μl final reaction volume). The substrate concentration for caspase 3 specificity assay was 250 nM (Ac-DEVD-AMC; Promega). The concentration of the enzyme (Caspase 3) in specificity assays was 1.6 nM. The concentrations were determined in order to perform specificity assays under initial velocities at fixed substrate concentration. Compounds were pre-incubated with enzymes for 30 minutes at 25° C. Reactions were initiated by addition of substrate to the plates containing the enzymes (+/−compounds) diluted in assay buffer. Reactions were incubated for 60 minutes at 37° C. Reactions were stopped by adding acetic acid (100 mM final). Readings were performed on a Pherastar Fluorescent Reader (BMG). λ Emission 380 nm; λ Excitation=460 nm. Data (mean values+/−standard deviation) were analyzed as % of control (no compound) and plotted as percentage versus the Log of the compound concentration using GraphPad (Prism). Data were fitted to a sigmoidal model (variable slope).

[1] = test system: HCT116 colon cancer cells; assay: HCT116 cell viability and proliferation assay (MTS); type: cell-based; conditions: Homo sapiens, HCT-116, HCT116, 72 hours, read-out: Cell viability (MTS): HCT116 Gl50 Day 3
Procedure: HCT116 colon cancer cells were obtained from ATCC (American Type Culture Collection), and maintained in Mc Coy's 5A medium containing 10% FBS, 3 mM glutamine and 1% penicillin/streptomycin. Cells were incubated at 37° C. in a humidified atmosphere containing 5% CO2.
Cell viability was assayed using the MTS technique in 96-well culture plates (CellTiter 96® Aqueous Non-Radioactive Cell Proliferation Assay, Promega) according to the manufacturer's instructions. MTS (3-(4,5-dimethyl-thiazol-2-yl)-5-(3-carboxy-methoxyphenyl)-2-(4-sulfophenyl)-2H-tetra-zolium) is a MTT-derived tetrazolium that is reduced in metabolically active cells into a soluble, cell-permeant formazan. The amount of formazan, detected by its absorbance at 492 nm is proportional to the number of living, metabolically active cells.
10^3 HCT116 cells were seeded per well. 24 hours later, the medium was changed and the cells treated in triplicate with the concentrations of each compound from 100 μM to 50 nM. The compounds were diluted in 100% DMSO, whose final concentration on cells was kept at 0.5%.
Cells were incubated with the compounds for 72 hours, and their viability then assayed by the addition of MTS for 2 hours. Absorbance at 492 nm was measured directly from the 96-well culture plates. GI50 (Growth Inhibition 50) concentrations for each compound were calculated using a sigmoidal variable slope fit (Prism 4.0, Graphpad Softwares). Values represent mean of three independent experiments.

In the case of Cc1cccc(CN2CCC(CNC(=O)c3ccc4c(Cl)c5c(nc4c3)CCCC5)CC2)c1 [Example 1, 9-Chloro-5,6,7,8-tetrahydro-acridine-3-carboxylic acid [1-(3-methyl-benzyl)-piperidin-4-ylmethyl]-amide], the pIC50 (USP5) was less than 3.70, the pIC50 (Caspase 3) was less than 3.70 and the pIC50 [1] was 5.70.

For CCN1CCCC1CNC(=O)c1ccc2c(Cl)c3c(nc2c1)CCCC3 (stereo not drawn) [Example 2, 9-Chloro-5,6,7,8-tetrahydro-acridine-3-carboxylic acid (1-ethyl-pyrrolidin-2-ylmethyl)-amide], the pIC50 (USP5) was less than 3.70, the pIC50 (Caspase 3) was less than 3.70 and the pIC50 [1] was 5.30.

For CCCN(CCC)CCNC(=O)c1ccc2c(Cl)c3c(nc2c1)CCCC3 [Example 3, 9-Chloro-5,6,7,8-tetrahydro-acridine-3-carboxylic acid (2-dipropylamino-ethyl)-amide], the pIC50 (USP5) was less than 3.70, the pIC50 (Caspase 3) was less than 3.70 and the pIC50 [1] was 5.46.

CCCCN(CC)CCNC(=O)c1ccc2c(Cl)c3c(nc2c1)CCCC3 [Example 4, 9-Chloro-5,6,7,8-tetrahydro-acridine-3-carboxylic acid [2-(butyl-ethyl-amino)-ethyl]-amide] showed a pIC50 (USP5) of less than 3.70, a pIC50 (Caspase 3) of less than 3.70 and a pIC50 [1] of 5.40.

CCN(CCCNC(=O)c1ccc2c(Cl)c3c(nc2c1)CCCC3)Cc1ccccc1 [Example 5, 9-Chloro-5,6,7,8-tetrahydro-acridine-3-carboxylic acid [3-(benzyl-ethyl-amino)-propyl]-amide] gave a pIC50 (USP5) of less than 3.70, a pIC50 (Caspase 3) of less than 3.70 and a pIC50 [1] of 5.40.

CCCN(CCC)CCCNC(=O)c1ccc2c(Cl)c3c(nc2c1)CCCC3 [Example 6, 9-Chloro-5,6,7,8-tetrahydro-acridine-3-carboxylic acid (3-dipropylamino-propyl)-amide] gave a pIC50 (USP5) of less than 3.70, a pIC50 (Caspase 3) of less than 3.70 and a pIC50 [1] of 5.41.

Compound CCN(CC)CCNC(=O)c1ccc2c(Cl)c3c(nc2c1)CCCC3 [Example 7, 9-Chloro-5,6,7,8-tetrahydro-acridine-3-carboxylic acid (2-diethylamino-ethyl)-amide] has a pIC50 (USP5) of less than 3.70, a pIC50 (Caspase 3) of less than 3.70 and a pIC50 [1] of 5.37.

O=C(NCCCN1CCCC1)c1ccc2c(Cl)c3c(nc2c1)CCCC3 [Example 8, 9-Chloro-5,6,7,8-tetrahydro-acridine-3-carboxylic acid (3-pyrrolidin-1-yl-propyl)-amide] was tested, and the pIC50 (USP5) was less than 3.70, the pIC50 (Caspase 3) was less than 3.70 and the pIC50 [1] was 5.23.

CC1CCCC(C)N1CCCNC(=O)c1ccc2c(Cl)c3c(nc2c1)CCCC3 (stereo not drawn) [Example 9, 9-Chloro-5,6,7,8-tetrahydro-acridine-3-carboxylic acid [3-(2,6-dimethyl-piperidin-1-yl)-propyl]-amide] was tested, and the pIC50 (USP5) was less than 3.70, the pIC50 (Caspase 3) was less than 3.70 and the pIC50 [1] was 5.44.

With CCN(CC)CCCNC(=O)c1ccc2c(Cl)c3c(nc2c1)CCCC3 [Example 10, 9-Chloro-5,6,7,8-tetrahydro-acridine-3-carboxylic acid (3-diethylamino-propyl)-amide] the pIC50 (USP5) was less than 3.70, the pIC50 (Caspase 3) was less than 3.70 and the pIC50 [1] was 5.30.

CN(C)CCNC(=O)c1ccc2c(Cl)c3c(nc2c1)CCCC3 [Example 11, 9-Chloro-5,6,7,8-tetrahydro-acridine-3-carboxylic acid (2-dimethylamino-ethyl)-amide] gave a pIC50 (USP5) of less than 3.70, a pIC50 (Caspase 3) of less than 3.70 and a pIC50 [1] of 5.11.

In the case of O=C(c1ccc2c(Cl)c3c(nc2c1)CCCC3)N1CCCCCC1 [Example 12, Azepan-1-yl-(9-chloro-5,6,7,8-tetrahydro-acridin-3-yl)-methanone], the pIC50 (USP5) was less than 3.70, the pIC50 (Caspase 3) was less than 3.70 and the pIC50 [1] was 4.70.

Compound CCCN1CCN(CCCNC(=O)c2ccc3c(Cl)c4c(nc3c2)CCCC4)CC1 [Example 13, 9-Chloro-5,6,7,8-tetrahydro-acridine-3-carboxylic acid [3-(4-propyl-piperazin-1-yl)-propyl]-amide] has a pIC50 (USP5) of less than 3.70, a pIC50 (Caspase 3) of less than 3.70 and a pIC50 [1] of 5.23.

With CN(CCCNC(=O)c1ccc2c(Cl)c3c(nc2c1)CCCC3)Cc1ccccc1 [Example 14, 9-Chloro-5,6,7,8-tetrahydro-acridine-3-carboxylic acid [3-(benzyl-methyl-amino)-propyl]-amide] the pIC50 (USP5) was less than 3.70, the pIC50 (Caspase 3) was less than 3.70 and the pIC50 [1] was 5.39.

In the case of CN1CCN(CCCNC(=O)c2ccc3c(Cl)c4c(nc3c2)CCCC4)CC1 [Example 15, 9-Chloro-5,6,7,8-tetrahydro-acridine-3-carboxylic acid [3-(4-methyl-piperazin-1-yl)-propyl]-amide], the pIC50 (USP5) was less than 3.70, the pIC50 (Caspase 3) was less than 3.70 and the pIC50 [1] was 5.13.

O=C(c1ccc2c(Cl)c3c(nc2c1)CCCC3)N1CCC(N2CCCCC2)CC1 [Example 16, [1,4′]Bipiperidinyl-1′-yl-(9-chloro-5,6,7,8-tetrahydro-acridin-3-yl)-methanone] gave a pIC50 (USP5) of less than 3.70, a pIC50 (Caspase 3) of less than 3.70 and a pIC50 [1] of 4.87.
